Paper PMC10763564, “BrainBike peptidomimetic enables efficient transport of proteins across brain endothelium” (RSC Chemical Biology, 2023)
Starred links: 1 amine or outer side, 2 acyl side, 3 side chain; linkers in the order of their positions; H or OH if unused. Positions of bridges follow the written chain, without caps; N, C: chain ends. Residues, ends and D or L forms follow the SMILES beside them. TBMB = c1c(C[*:1])cc(C[*:3])cc1C[*:2]

What was measured:
[1] = Peptide stability in human serum; assay type: in vitro ADME; conditions: peptide 100 µM, 37 °C, aliquots 0 min to 48 h, MeOH protein precipitation, % intact peptide by UHPLC-UV, confirmed with mass spectrometry
Method: Peptide stability in human serum
Peptides were dissolved in human serum at a final concentration of 100 µM and then incubated at 37 °C. Aliquots of 50 µL were taken at different times (0 min, 15 min, 30 min, 1 h, 2 h, 4 h, 6 h, 24 h and 48 h) and flash frozen with acetone/solid CO 2. Samples were treated with 200 µL of MeOH to precipitate serum proteins. Samples for U HPLC analysis were centrifuged and filtered through a 0.22 µm filter before injection. Aliquots were analysed with UHPLC-UV (flow = 0.61 mL/min; gradient 5 -95% MeCN (0.036% TFA) in water (0.045% TFA) in 2 minutes). The amount of peptide remaining was calculated by comparing the area under the curve of the several samples. […]

HeLa cells (TfR1+) = HeLa cells (TfR1+) (Homo sapiens, UniProt P02786); test: Cell binding assay of sCy5-labelled peptides to HeLa cells by flow cytometry; assay type: cell-based; conditions: 5 to 600 nM, 4 °C, 1 hour, geometric mean vs concentration
Method: HeLa cells were cultured in DMEM media (1000 mg/L glucose) supplemented with 10% fetal bovine serum (FBS), 1% of 2 mM L -glutamine and 1% antibiotics (100 units/mL of penicillin and 100 µg/mL of streptomycin). Cells were expanded at 80% confluence and grown at 37°C with 5% CO2. All work performed with human cells follow the ethical principles and EU […]
Cell transfection of HeLa cells to express higher levels of TfR1
In a 96-well plate, 10,000 HeLa cells per well were seeded and left to grow for 24 h. A mixture of Lipofectamine 3000 (0.1 µL/well, Lipofectamine™ 3000 Transfection Reagent, ThermoFisher Scientific ), P3000 Reagent (0.2 µL/well) and the DNA pTfR-mNeonGreen (Plasmid #129608, Addgene) (100 ng/well ) in Opti-MEM medium was prepared. The mixture was incubated for 15 mi n, added to the cells, and incubated for 48 h.
48-hour post-transfection, 50 μl of the sulfo-Cy5-labelled peptides were added to each well at the appropriate concentration (from 5 to 600 nM) and incubated at 4°C for 1 hour. Cells were washed three times with 100 μL of PBS, trypsinized with 25 μl of trypsin for 5 min at 37°C and, then 75 μL of supplemented medium with formalin (33% v/v) was added. Cells were detached by repeated pipetting and analysed using an Agilent NovoCyteflow cytometer (Agilent). sCy5 was analysed at 640 nm while mNeon-Green at 488 nm. Data was analysed by plotting the geometric mean vs the concentration of the peptide. […]

[2] = test system: human brain endothelial cells monolayer (BBB model); test: Permeability assay in the in vitro BBB cellular model (human brain-like endothelial cells on Transwell); assay type: in vitro ADME; conditions: human cell-based BBB model
Method: 48-hour post-transfection, 50 μl of the sulfo-Cy5-labelled peptides were added to each well at the appropriate concentration (from 5 to 600 nM) and incubated at 4°C for 1 hour. Cells were washed three times with 100 μL of PBS, trypsinized with 25 μl of trypsin for 5 min at 37°C and, then 75 μL of supplemented medium with formalin (33% v/v) was added. Cells were detached by repeated pipetting and analysed using an Agilent NovoCyteflow cytometer (Agilent). sCy5 was analysed at 640 nm while mNeon-Green at 488 nm. Data was analysed by plotting the geometric mean vs the concentration of the peptide.
Permeability assays in the in vitro BBB cellular model […]
the compound in Ringer HEPES was added to the donor compartment and 1500 µL of Ringer HEPES was introduced into the acceptor compartment. The plates were incubated for 2 h at 37 °C, and the solutions from both compartments were recovered and analysed. The samples were evaluated in triplicates. The amount of protein conjugates was quantified by fluorescence with Fluorescence Spectrophotometer F2500 HITACHI. […] The voltage for the detector was 700 V. Apparent permeability was calculated with the following formula: […]

[3] = target: T1, human Transferrin Receptor (Homo sapiens, UniProt P02786); test: Biolayer interferometry with immobilized extracellular domain of the receptor; conditions: biotinylated hTfR on streptavidin biosensors, Octet R2, 25 °C, 10 mM HEPES pH 7.4, 150 mM NaCl, 0.05 % Tween-20, 1 mg/mL BSA; peptide 11.1, 33.3, 100 µM; 1:1 binding model; read-out: KD, binding to immobilized human TfR
T1 construct: purchased Acro Biosystems TFR-H82E5
Method: Biophysical characterization
Binding assays were performed on an Octet R2 (Sartorious) using streptavidin-coated biosensors (SA biosensors, 18-5019). Biosensors were equilibrated for at least 10 min in binding buffer (10 mM HEPES pH 7.4, 150 mM NaCl, 0.05 % Tween-20, 1 mg/mL BSA).
Experiments were designed and executed from the Octet BLI Discovery 13.0 software. The biotinylated human Transferrin Receptor (TFR-H82E5, Acro Biosystems) was immobilized onto the biosensor by dipping the sensors into a solution of 1 µg/mL hTfR for 500 s, followed by dipping the sensor into a fresh solution of binding buffer to stablish a baseline for 200 s.
Titrations were executed at 25 °C while rotating at 1000 rpm. In the association phase, the sensors were dipped into a solution containing the peptides at several concentrations in binding buffer for 150 s. After reaching equilibrium, the biosensors were dipped into fresh binding solution to monitor the dissociation kinetics for 200 s. Kinetic data were collected and processed using a 1:1 binding model to obtain the affinity constants using the Octet Analysis […]
Unpaired two-tailed student t tests were applied to evaluate the significant difference or p values between data sets using Prism 6.0c software.
1. C. Heinis, T. Rutherford, S. Freund and G. Winter, Nat Chem Biol, 2009, 5, 502–507.
2. […]

Sequence of HeLa cells (TfR1+) (P02786 whole entry): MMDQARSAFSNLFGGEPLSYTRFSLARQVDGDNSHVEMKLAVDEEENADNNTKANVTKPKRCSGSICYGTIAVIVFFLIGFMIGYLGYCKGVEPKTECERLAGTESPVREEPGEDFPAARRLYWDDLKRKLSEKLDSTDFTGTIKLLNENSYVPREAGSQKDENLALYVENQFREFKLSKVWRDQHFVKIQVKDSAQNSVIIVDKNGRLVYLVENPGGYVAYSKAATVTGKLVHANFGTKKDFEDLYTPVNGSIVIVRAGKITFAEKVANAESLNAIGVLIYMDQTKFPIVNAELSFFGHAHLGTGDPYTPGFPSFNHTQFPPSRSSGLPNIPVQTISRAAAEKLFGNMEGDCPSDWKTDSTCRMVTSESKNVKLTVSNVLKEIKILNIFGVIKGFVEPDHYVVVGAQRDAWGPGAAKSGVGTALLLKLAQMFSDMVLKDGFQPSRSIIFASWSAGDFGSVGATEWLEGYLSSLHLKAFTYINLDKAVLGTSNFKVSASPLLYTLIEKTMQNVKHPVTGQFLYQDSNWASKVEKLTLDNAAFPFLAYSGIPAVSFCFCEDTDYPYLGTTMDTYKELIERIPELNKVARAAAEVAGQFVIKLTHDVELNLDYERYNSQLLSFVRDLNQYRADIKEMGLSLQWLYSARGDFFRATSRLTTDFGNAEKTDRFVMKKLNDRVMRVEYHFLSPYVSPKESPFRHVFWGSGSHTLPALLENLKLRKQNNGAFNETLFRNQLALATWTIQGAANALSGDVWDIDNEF
T1 sequence (P02786 89-760 limits assumed): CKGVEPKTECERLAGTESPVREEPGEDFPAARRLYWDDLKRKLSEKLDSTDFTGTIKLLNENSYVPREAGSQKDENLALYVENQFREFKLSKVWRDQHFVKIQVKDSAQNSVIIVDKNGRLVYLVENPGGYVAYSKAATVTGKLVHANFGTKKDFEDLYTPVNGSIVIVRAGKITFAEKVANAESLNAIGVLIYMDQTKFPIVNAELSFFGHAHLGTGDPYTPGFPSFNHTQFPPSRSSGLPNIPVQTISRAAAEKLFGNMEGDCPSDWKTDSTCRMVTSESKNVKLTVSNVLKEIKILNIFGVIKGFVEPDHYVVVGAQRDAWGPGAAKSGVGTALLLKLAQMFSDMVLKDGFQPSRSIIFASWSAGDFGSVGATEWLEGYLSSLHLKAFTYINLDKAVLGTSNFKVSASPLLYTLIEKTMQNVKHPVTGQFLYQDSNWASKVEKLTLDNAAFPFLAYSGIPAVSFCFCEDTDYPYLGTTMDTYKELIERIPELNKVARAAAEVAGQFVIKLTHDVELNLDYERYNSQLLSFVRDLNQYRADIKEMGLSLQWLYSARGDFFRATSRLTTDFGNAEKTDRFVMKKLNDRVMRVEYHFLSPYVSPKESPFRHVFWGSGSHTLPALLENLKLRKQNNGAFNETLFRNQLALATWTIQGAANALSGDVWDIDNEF

half-life at 100 µM [1] [h] | App. Kd, association to HeLa cells (TfR1+) (HeLa cells (TfR1+)) | App. Kd, association to HeLa cells (TfR1+) (HeLa cells (TfR1+); listed as BB4) [nM] | Fold increase in the transport of GFP on conjugation to the shuttle ([2]; GFP conjugate vs GFP) [fold] | Fold increase in the transport of the scFv on conjugation to the shuttle ([2]; sCy5-labelled scFv conjugate vs scFv) [fold] | Kd [3] [nM] | Compound
7.7 ± 1.9 | > 400 nM | – | – | – | – | CC(C)[C@@H]1NC(=O)[C@@H](N)CSCc2cc3cc(c2)CSC[C@H](NC(=O)[C@H](CC(=O)O)NC(=O)[C@H](Cc2c[nH]c4ccccc24)NC(=O)[C@H](Cc2c[nH]cn2)NC1=O)C(=O)N[C@@H](CCCNC(=N)N)C(=O)N[C@@H](CCC(N)=O)C(=O)N[C@@H](Cc1c[nH]c2ccccc12)C(=O)N[C@@H](Cc1c[nH]c2ccccc12)C(=O)N[C@@H](CCC(N)=O)C(=O)N1CCC[C@H]1C(=O)N[C@@H](CO)C(=O)N[C@H](C(N)=O)CSC3 [BrainBike-1] (H-CVHWDCRQWWQPSC-NH2; linker 1-6-14 via TBMB)
3.5 ± 0.3 | 120 ± 15 nM | – | – | – | – | CC(C)[C@@H]1NC(=O)[C@@H](N)CSCc2cc3cc(c2)CSC[C@H](NC(=O)[C@H](Cc2c[nH]c4ccccc24)NC(=O)[C@H](CCC(N)=O)NC(=O)[C@H](CCCNC(=N)N)NC(=O)[C@H](Cc2ccccc2)NC(=O)[C@H](CC(=O)O)NC(=O)[C@H](Cc2c[nH]c4ccccc24)NC(=O)[C@H](Cc2c[nH]cn2)NC1=O)C(=O)N[C@@H](CCC(N)=O)C(=O)N1CCC[C@H]1C(=O)N[C@@H](CO)C(=O)N[C@H](C(N)=O)CSC3 [BrainBike-2] (H-CVHWDFRQWCQPSC-NH2; linker 1-10-14 via TBMB)
4.8 ± 0.6 | 250 ± 5 nM | – | – | – | – | CC(C)[C@@H]1NC(=O)[C@@H](N)CSCc2cc3cc(c2)CSC[C@H](NC(=O)[C@H](CCCNC(=N)N)NC(=O)[C@H](Cc2ccccc2)NC(=O)[C@H](CC(=O)O)NC(=O)[C@H](Cc2c[nH]c4ccccc24)NC(=O)[C@H](Cc2c[nH]cn2)NC1=O)C(=O)N[C@@H](CCC(N)=O)C(=O)N[C@@H](Cc1c[nH]c2ccccc12)C(=O)N[C@@H](Cc1c[nH]c2ccccc12)C(=O)N[C@@H](CCC(N)=O)C(=O)N1CCC[C@H]1C(=O)N[C@@H](CO)C(=O)N[C@H](C(N)=O)CSC3 [BrainBike-3] (H-CVHWDFRCQWWQPSC-NH2; linker 1-8-15 via TBMB)
5.5 ± 2.5 | roughly 40 nM | 37 ± 2 | 4 | 5 | – | CC(C)[C@@H]1NC(=O)[C@@H](N)CSCc2cc3cc(c2)CSC[C@H](NC(=O)[C@H](CC(=O)O)NC(=O)[C@H](Cc2c[nH]c4ccccc24)NC(=O)[C@H](Cc2c[nH]cn2)NC1=O)C(=O)N[C@@H](CCCNC(=N)N)C(=O)N[C@@H](CCC(N)=O)C(=O)N[C@@H](Cc1c[nH]c2ccccc12)C(=O)N[C@H](C(N)=O)CSC3 [BrainBike-4] (H-CVHWDCRQWC-NH2; linker 1-6-10 via TBMB)
1.8 ± 0.5 | 270 ± 5 nM | – | – | – | > 100000 | H-GVHWDFRQWWQPS-NH2 [Y1, reference compound]
